According to US20160030407A1, “Method of Treating Inflammatory Lung Disease” (priority 2010, published 2016):
Several values for one entry are separate records, joined by “and”; a condition that tells them apart may be missing. Equal entries are not always repeated. Entries after “also recorded” stand apart in the source; their conditions may differ. Where two headings read alike, the source gives them in different places.

What was measured:
[1] = test system: NFκB; assay: NFκB luciferase assay (inhibition of TNFα-induced NFκB activity); type: cell-based, Human; conditions: HEK293 with NFκB luciferase reporter challenged with TNFα
Procedure: The smokeless tobacco used in these experiments was plain long-leaf Copenhagen tobacco purchased from a local vendor. Crude extract was extracted with methanol and water and clarified by centrifugation and filtration. The alkaloid extract was prepared from sodium hydroxide and methanol extraction, organic phase separation and purification. All treatment samples were prepared as a function of weight (μg/ml), and all samples were diluted in DMSO.
Human […] kidney cells (HEK293) transfected with an NFκB luciferase reporter were challenged with TNFα for three hours, then samples were applied to the challenged cells.
The effect of S-(−)-anatabine on TNFα-induced NFκB activity in vitro was determined as described in Example 1.

[2] = Physical signs after single i.v. dose (Example 3); type: in vivo, Sprague-Dawley rats; conditions: rat, nicotine 0.4 mg/kg, anatabine 0.10, 0.75, 1.0 mg/kg, tartrate
Procedure: Four aliquots of each dose level formulation were collected and stored at −80° C. The test compound, corresponding dose level, number of animals, and sample collection times for Phase I of the study are shown in Table 3. The test compound, corresponding dose level, number of animals, and sample collection times for Phase II of the study are shown in Table 4. The physical signs of each animal were monitored following administration of the test compound.

[3] = Single i.v. dose toxicity: body weights and food consumption; type: in vivo, Sprague-Dawley rats; conditions: for Average Daily Food Consumption per Rat: Nicotine 0.75 mg/kg; for Mean weight increase by day 14: single i.v. 0.75 mg/kg nicotine
Procedure: Body weight and food consumption was measured daily for 14 days. On day 15, urine was collected on all surviving animals. The animals were euthanized and bled via cardiac puncture, and blood was collected for analysis. Tissues were collected, weighed, evaluated for gross abnormalities, and stored in 10% neutral-buffered formalin.
All animals were observed daily.

[4] = Single i.v. dose toxicity: hematology; type: in vivo, Sprague-Dawley rats
Source text: (§1) On day 15, urine was collected on all surviving animals for urinalysis. The animals were euthanized and bled via cardiac puncture. Blood was collected for hematology, clinical chemistry, and coagulation analysis. Tissues were collected, weighed, and stored in 10% neutral-buffered formalin for possible future analysis.

[5] = Single i.v. dose toxicity: coagulation (aPTT, PT); type: in vivo, Sprague-Dawley rats; conditions: for ACTIVE PARTIAL THROMBOPLASTIN TIME: nicotine 0.75 mg/kg single i.v. dose, tartrate
Source text: as §1

[6] = Single i.v. dose toxicity: urinalysis; type: in vivo, Sprague-Dawley rats; conditions: rat; day 15 after single i.v. dose
Source text: as §1

[7] = molecular target: nAChR α3/β4 (Homo sapiens, UniProt P30926+P32297); type: cell-based
Chain of nAChR α3/β4 (P32297 32-505): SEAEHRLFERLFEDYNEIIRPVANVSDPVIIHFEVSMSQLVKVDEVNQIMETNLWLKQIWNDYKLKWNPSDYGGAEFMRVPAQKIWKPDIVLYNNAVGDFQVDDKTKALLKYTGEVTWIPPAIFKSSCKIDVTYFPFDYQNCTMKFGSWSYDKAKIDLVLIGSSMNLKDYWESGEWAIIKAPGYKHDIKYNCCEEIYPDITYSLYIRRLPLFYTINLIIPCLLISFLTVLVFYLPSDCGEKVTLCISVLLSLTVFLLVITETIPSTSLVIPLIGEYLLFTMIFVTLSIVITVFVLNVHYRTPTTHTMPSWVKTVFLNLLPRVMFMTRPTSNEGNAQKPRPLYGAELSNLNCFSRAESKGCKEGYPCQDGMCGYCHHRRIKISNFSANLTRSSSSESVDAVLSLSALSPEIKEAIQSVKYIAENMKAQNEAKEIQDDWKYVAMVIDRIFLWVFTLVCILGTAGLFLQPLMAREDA
Chain of nAChR α3/β4 (P30926 22-498): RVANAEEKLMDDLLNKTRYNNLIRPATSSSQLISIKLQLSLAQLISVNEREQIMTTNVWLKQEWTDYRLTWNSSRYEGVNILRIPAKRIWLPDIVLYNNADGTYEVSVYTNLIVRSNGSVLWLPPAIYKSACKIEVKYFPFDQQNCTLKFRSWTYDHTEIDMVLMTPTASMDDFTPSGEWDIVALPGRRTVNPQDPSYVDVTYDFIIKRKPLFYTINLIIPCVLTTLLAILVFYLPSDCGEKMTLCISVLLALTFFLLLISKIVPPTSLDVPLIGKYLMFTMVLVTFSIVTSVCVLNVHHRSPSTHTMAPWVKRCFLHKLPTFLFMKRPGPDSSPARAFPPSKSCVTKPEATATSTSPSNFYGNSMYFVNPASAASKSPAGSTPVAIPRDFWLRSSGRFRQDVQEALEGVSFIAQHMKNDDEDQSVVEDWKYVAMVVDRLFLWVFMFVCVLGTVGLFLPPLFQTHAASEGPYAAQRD
Procedure: (§2) Briefly, cells were incubated with […] dye for 30 min at 37° C.

[8] = molecular target: T1, nAChR α4/β2 (Homo sapiens, UniProt P17787+P43681); type: cell-based; conditions: for Normalized % Potentiation: with 10 μM Ach, 100% = 10 μM Ach+3 μM epibatidine, 0% = 10 μM Ach
T1 construct: host or cells: HEK293 cells, transient
T1 sequence (P43681 29-627): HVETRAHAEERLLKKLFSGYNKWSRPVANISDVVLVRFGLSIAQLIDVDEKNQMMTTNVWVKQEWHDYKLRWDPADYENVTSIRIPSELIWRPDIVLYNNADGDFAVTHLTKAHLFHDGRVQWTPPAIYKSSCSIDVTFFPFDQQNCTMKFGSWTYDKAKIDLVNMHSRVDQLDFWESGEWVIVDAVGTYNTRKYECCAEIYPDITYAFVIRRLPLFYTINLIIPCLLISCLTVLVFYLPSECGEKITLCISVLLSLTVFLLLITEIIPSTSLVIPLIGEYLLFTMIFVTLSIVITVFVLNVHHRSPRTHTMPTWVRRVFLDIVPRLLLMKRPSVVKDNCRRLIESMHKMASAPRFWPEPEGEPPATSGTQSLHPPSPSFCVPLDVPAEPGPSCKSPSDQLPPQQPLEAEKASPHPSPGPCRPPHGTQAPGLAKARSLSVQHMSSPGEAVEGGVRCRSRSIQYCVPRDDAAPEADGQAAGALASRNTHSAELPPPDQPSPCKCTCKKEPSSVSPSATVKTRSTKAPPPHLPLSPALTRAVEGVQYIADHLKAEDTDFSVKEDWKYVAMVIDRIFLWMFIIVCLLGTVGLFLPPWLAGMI
T1 sequence (P17787 26-502): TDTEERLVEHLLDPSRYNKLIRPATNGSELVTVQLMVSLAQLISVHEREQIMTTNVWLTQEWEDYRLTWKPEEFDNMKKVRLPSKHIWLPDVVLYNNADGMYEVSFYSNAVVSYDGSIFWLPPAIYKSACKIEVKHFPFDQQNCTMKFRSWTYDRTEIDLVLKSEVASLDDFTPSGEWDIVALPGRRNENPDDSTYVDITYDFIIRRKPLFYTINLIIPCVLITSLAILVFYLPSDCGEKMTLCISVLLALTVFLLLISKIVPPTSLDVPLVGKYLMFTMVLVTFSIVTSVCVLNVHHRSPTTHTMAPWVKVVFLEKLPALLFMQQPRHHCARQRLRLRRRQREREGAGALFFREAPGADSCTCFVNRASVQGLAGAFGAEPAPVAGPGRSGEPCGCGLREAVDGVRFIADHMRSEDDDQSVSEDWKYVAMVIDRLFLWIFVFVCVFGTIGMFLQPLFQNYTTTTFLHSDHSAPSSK
Procedure: as §2

[9] = molecular target: T2, nAChR α7 (Homo sapiens, UniProt P36544); assay: nAChR α7 channel agonist assay (FLIPR); type: cell-based; conditions: in presence of PNU-120596; maximal stimulation not achieved
T2 construct: host or cells: CHO cells coexpressing RIC-3
T2 sequence (P36544 23-502): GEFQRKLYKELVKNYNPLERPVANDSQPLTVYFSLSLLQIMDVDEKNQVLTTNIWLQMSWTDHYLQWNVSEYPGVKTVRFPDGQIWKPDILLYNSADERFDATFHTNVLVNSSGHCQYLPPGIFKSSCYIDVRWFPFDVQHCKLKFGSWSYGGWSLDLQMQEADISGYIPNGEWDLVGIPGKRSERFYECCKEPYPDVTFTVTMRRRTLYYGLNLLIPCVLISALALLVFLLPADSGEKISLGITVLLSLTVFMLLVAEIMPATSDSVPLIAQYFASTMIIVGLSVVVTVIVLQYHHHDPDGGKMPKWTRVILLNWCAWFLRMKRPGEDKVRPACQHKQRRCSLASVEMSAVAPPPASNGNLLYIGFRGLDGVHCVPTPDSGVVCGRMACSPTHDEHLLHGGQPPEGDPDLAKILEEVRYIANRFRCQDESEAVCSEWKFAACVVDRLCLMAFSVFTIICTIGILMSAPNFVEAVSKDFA
Procedure: as §2
Therefore, the assay of agonist activity for either Ach or for the test articles was conducted in the presence of the positive allosteric modulator.

[10] = 0.75 mg/kg nicotine, female rats, individual animals
[11] = 0.75 mg/kg nicotine, female rats, individual animals, tartrate
[12] = 0.75 mg/kg nicotine, male rats, individual animals
[13] = 0.75 mg/kg nicotine, male rats, individual animals, tartrate
[14] = 0.75 mg/kg, gender F, group mean
[15] = 0.75 mg/kg, gender M, group mean

SMILES: CN1CCCC1c1cccnc1.O=C(O)C(O)C(O)C(=O)O (single isomer, unassigned; (-)) [Nicotine, (−) Nicotine hydrogen tartrate, reference compound]
- Effect on TNFα-induced NFκB-mediated transcription of luciferase [1]: reduce TNFα-induced NFκB-mediated transcription
- physical signs post dose [2]: experienced tremors immediately post dose; also recorded: experienced labored breathing
- Average Daily Food Consumption per Rat ([3]; Female, day 6, cages 1 and 2, tartrate): 20.0 grams
- Average Daily Food Consumption per Rat ([3]; Males, day 8, cages 1 and 2, tartrate): 24.0 grams
- day 13 B.W. ([3]; individual male rats, single i.v. 0.75 mg/kg, tartrate, 0.75 mg/kg): 330 g
- B.W. day 6 ([3]; nicotine 0.75 mg/kg single i.v. dose, day 6, male rats (individual animals), tartrate): 270 g
- Mean weight increase by day 14 ([3]; female rats): 40.8 g
- Mean weight increase by day 14 ([3]; male rats, listed as nicotine, tartrate, 0.75 mg/kg): significantly lower than the controls
- Mean weight increase by day 14 ([3]; male rats, tartrate, 0.75 mg/kg): 98.5 g
- ANISOCYTOSIS [4, 10]: SLIGHT
- BASOPHIL [4, 10]: 0%
- EOSINOPHIL [4, 10]: 0%
- POLYCHROMASIA [4, 10]: SLIGHT
- LYMPHOCYTE [4, 11]: 83% and 87% and 89%
- MCHC [4, 11]: 34%
- MONOCYTE [4, 11]: 2% and 1% and 0%
- NEUTROPHILSEG [4, 11]: 15% and 12% and 11%
- RE[…] [4, 11]: 5.8% and 4.9% and 4.5%
- ANISOCYTOSIS [4, 12]: SLIGHT
- BASOPHIL [4, 12]: 0%
- EOSINOPHIL [4, 12]: 0%
- POLYCHROMASIA [4, 12]: SLIGHT
- HCT [4, 13]: 50%
- LYMPHOCYTE [4, 13]: 86% and 87% and 80% and 90%
- MONOCYTE [4, 13]: 2% (3×) and 4%
- NEUTROPHILSEG [4, 13]: 12% and 11% and 16% and 8%
- RE[…] [4, 13]: 4.3% and 4.8% and 5.6% and 6.1%
- BASOPHIL [4, 14]: 0.0%
- EOSINOPHIL [4, 14]: 0.0%
- HGB [4, 14]: 16.0 g/dL
- MONOCYTE [4, 14]: 1.0%
- PLATELET COUNT [4, 14]: 1.363e+06 µL⁻¹
- RBC [4, 14]: 8e+06 µL⁻¹
- RE[…] [4, 14]: 5.1%
- WBC [4, 14]: 10200 µL⁻¹
- BASOPHIL [4, 15]: 0.0%
- EOSINOPHIL [4, 15]: 0.0%
- MCHC [4, 15]: 34.0%
- MONOCYTE [4, 15]: 2.5%
- PLATELET COUNT [4, 15]: 1.3558e+06 µL⁻¹
- RBC [4, 15]: 7.6e+06 µL⁻¹
- RE[…] [4, 15]: 5.2%
- WBC [4, 15]: 11400 µL⁻¹
- mean corpuscular volume (MCV) and mean corpuscular hemoglobin (MCH) vs control ([4]; female rats, […] anatabine, 0.75 mg/kg nicotine i.v.): small, but statistically significant decreases
- aPTT vs vehicle control ([5]; male and female rats, nicotine 0.75 mg/kg): significantly lower relative to the vehicle control group
- ACTIVE PARTIAL THROMBOPLASTIN TIME ([5]; female rats, individual animals E6, E9): 15 s
- ACTIVE PARTIAL THROMBOPLASTIN TIME ([5]; male rats, individual animals E1, E2, E3, E5): 15 s
- urinalysis parameters vs controls [6]: no notable differences in any of the urinalysis parameters
- potentiation [7]: Neither nicotine nor anatabine potentiated
- inhibition ([8]; 100 μM Ach + 0.3 μM epibatidine, not concentration-dependent, IC50s could not be determined): inhibited receptor activity
- Normalized % Potentiation ([8]; test conc 0.3 μM): −46.00%
- Normalized % Potentiation ([8]; test conc 1 μM): −46.34%
- Normalized % Potentiation ([8]; test conc 3 μM): −40.54%
- Normalized % Potentiation ([8]; test conc 10 μM): −42.16%
- Normalized % Potentiation ([8]; test conc 30 μM): −43.70%
- Normalized % Potentiation ([8]; test conc 100 μM): −43.40%
- Normalized % Potentiation ([8]; test conc 300 μM): −34.56%
- Normalized % Potentiation ([8]; test conc 1000 μM): −39.66%
- agonist activity [9]: showed agonist activity
